Laboratory results taken from the kinase profiling compilation of Christmann-Franck et al. (2016).

Assays:
Test in all cases: radiometric filter-binding kinase assay, Kinase HotSpot
Conditions in all cases: compound 0.5 µM; ATP 10 µM
[1] = target: PRKG2 (human) (UniProt Q13237)
[2] = target: SRPK1 (human) (UniProt Q96SB4)
[3] = target: DYRK1B (human) (UniProt Q9Y463)
[4] = target: RPS6KB2 (human) (UniProt Q9UBS0)
[5] = target: JAK2 JH1 JH2 (human) (UniProt O60674)
[6] = target: AKT1 (human) (UniProt P31749)
[7] = target: NEK9 (human) (UniProt Q8TD19)
[8] = target: ABL2 (human) (UniProt P42684)
[9] = target: CDK1 CCNB1 (human) (UniProt P06493+P14635)
[10] = target: MAPK11 (human) (UniProt Q15759)
[11] = target: PNCK (human) (UniProt Q6P2M8)
[12] = target: SLK (human) (UniProt Q9H2G2)
[13] = target: GRK5 (human) (UniProt P34947)
[14] = target: CAMK2A (human) (UniProt Q9UQM7)
[15] = target: FLT1 (human) (UniProt P17948)
[16] = target: NEK4 (human) (UniProt P51957)
[17] = target: IRAK4 (human) (UniProt Q9NWZ3)
[18] = target: TYK2 JH1 catalytic (human) (UniProt P29597)
[19] = target: MAPKAPK2 (human) (UniProt P49137)
[20] = target: CDK5 CDK5R1 p25 (human) (UniProt Q00535+Q15078)
[21] = target: MAP2K2 (human) (UniProt P36507)
[22] = target: BTK (human) (UniProt Q06187)
[23] = target: NEK11 (human) (UniProt Q8NG66)
[24] = target: TXK (human) (UniProt P42681)
[25] = target: ALK (human) (UniProt Q9UM73)
[26] = target: STK17A (human) (UniProt Q9UEE5)
[27] = target: CDK6 CCND3 (human) (UniProt P30281+Q00534)
[28] = target: CDC42BPB (human) (UniProt Q9Y5S2)
[29] = target: NTRK3 (human) (UniProt Q16288)
[30] = target: PRKCI (human) (UniProt P41743)
[31] = target: GSK3A (human) (UniProt P49840)
[32] = target: KDR (human) (UniProt P35968)
[33] = target: FGFR2 (human) (UniProt P21802)
[34] = target: PBK (human) (UniProt Q96KB5)
[35] = target: PAK2 (human) (UniProt Q13177)
[36] = target: TEK (human) (UniProt Q02763)
[37] = target: FGFR3 (human) (UniProt P22607)
[38] = target: EPHA8 (human) (UniProt P29322)
[39] = target: RPS6KA5 KD2 (human) (UniProt O75582)
[40] = target: AURKA (human) (UniProt O14965)
[41] = target: DSTYK (human) (UniProt Q6XUX3)
[42] = target: EPHB2 (human) (UniProt P29323)

Chain of RPS6KA5 KD2 (human) (O75582 whole entry, looked up): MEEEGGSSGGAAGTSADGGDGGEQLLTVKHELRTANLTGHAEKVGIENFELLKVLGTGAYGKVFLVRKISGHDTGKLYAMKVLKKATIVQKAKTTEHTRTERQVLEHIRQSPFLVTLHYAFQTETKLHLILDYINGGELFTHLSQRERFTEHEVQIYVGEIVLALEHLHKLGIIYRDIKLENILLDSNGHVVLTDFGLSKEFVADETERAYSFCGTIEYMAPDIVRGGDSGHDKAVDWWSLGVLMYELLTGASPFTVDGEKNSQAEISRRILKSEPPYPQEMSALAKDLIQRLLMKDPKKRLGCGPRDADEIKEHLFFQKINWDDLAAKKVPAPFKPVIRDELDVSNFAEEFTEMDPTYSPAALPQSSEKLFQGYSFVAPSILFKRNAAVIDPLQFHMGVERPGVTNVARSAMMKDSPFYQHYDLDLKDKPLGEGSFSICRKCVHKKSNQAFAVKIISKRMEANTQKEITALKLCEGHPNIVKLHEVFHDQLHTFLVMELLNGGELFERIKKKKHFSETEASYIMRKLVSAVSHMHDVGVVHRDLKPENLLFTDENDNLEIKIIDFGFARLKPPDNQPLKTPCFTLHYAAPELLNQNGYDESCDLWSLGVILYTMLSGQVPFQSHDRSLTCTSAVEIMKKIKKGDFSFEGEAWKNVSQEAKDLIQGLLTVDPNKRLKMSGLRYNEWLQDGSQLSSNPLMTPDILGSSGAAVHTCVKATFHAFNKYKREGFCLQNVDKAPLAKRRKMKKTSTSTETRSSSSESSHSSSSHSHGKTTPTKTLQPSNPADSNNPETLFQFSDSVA
Chain of MAPK11 (human) (Q15759 whole entry, looked up): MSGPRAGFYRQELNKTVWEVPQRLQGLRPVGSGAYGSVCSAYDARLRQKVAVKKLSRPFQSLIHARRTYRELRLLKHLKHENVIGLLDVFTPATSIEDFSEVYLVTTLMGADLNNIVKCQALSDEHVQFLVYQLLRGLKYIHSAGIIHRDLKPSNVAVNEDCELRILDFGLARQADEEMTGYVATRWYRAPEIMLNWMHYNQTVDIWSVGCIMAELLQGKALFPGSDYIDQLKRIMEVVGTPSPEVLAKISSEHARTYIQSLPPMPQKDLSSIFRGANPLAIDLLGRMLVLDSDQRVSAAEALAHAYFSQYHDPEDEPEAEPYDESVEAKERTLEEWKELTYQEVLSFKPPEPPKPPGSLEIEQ
Chain of CAMK2A (human) (Q9UQM7 whole entry, looked up): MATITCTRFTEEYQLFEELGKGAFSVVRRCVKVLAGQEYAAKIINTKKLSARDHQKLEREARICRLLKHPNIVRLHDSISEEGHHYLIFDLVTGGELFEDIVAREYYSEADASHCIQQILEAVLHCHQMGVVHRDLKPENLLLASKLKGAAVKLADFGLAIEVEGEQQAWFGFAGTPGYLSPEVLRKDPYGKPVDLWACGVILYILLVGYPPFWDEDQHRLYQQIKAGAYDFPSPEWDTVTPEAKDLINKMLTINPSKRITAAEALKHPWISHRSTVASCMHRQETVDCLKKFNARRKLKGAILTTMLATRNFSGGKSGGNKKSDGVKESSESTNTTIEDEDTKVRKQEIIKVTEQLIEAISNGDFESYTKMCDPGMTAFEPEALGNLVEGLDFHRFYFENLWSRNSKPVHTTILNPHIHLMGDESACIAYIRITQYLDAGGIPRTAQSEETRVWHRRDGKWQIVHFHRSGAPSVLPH
Chain of BTK (human) (Q06187 whole entry, looked up): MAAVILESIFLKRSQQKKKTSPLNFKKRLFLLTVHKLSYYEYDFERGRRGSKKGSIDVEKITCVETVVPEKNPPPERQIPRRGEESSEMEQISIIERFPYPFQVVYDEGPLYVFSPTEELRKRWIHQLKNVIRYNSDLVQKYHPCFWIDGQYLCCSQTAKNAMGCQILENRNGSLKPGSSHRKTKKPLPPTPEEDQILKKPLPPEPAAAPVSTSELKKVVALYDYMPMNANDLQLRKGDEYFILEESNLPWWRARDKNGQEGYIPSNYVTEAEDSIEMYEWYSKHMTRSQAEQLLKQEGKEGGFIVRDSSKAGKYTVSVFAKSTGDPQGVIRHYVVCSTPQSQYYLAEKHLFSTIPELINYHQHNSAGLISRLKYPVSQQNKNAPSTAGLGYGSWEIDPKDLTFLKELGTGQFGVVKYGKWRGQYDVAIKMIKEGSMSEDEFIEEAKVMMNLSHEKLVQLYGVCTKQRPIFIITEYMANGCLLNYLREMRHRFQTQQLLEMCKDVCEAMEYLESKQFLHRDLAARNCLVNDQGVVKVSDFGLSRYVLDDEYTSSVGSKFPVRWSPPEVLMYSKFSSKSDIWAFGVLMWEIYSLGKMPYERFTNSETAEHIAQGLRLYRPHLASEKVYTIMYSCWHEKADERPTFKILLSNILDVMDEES
Chain of AURKA (human) (O14965 whole entry, looked up): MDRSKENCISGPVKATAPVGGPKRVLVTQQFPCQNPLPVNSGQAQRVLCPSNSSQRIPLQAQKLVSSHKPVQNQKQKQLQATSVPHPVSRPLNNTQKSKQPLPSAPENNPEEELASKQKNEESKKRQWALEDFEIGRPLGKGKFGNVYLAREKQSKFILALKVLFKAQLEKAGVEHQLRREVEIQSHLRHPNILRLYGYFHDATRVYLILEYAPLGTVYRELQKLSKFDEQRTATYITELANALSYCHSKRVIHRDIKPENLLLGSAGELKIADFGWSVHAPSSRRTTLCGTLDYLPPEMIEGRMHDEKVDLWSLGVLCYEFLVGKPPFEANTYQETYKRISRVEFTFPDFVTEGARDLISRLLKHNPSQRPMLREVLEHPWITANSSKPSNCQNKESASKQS
Chain of CDC42BPB (human) (Q9Y5S2 whole entry, looked up): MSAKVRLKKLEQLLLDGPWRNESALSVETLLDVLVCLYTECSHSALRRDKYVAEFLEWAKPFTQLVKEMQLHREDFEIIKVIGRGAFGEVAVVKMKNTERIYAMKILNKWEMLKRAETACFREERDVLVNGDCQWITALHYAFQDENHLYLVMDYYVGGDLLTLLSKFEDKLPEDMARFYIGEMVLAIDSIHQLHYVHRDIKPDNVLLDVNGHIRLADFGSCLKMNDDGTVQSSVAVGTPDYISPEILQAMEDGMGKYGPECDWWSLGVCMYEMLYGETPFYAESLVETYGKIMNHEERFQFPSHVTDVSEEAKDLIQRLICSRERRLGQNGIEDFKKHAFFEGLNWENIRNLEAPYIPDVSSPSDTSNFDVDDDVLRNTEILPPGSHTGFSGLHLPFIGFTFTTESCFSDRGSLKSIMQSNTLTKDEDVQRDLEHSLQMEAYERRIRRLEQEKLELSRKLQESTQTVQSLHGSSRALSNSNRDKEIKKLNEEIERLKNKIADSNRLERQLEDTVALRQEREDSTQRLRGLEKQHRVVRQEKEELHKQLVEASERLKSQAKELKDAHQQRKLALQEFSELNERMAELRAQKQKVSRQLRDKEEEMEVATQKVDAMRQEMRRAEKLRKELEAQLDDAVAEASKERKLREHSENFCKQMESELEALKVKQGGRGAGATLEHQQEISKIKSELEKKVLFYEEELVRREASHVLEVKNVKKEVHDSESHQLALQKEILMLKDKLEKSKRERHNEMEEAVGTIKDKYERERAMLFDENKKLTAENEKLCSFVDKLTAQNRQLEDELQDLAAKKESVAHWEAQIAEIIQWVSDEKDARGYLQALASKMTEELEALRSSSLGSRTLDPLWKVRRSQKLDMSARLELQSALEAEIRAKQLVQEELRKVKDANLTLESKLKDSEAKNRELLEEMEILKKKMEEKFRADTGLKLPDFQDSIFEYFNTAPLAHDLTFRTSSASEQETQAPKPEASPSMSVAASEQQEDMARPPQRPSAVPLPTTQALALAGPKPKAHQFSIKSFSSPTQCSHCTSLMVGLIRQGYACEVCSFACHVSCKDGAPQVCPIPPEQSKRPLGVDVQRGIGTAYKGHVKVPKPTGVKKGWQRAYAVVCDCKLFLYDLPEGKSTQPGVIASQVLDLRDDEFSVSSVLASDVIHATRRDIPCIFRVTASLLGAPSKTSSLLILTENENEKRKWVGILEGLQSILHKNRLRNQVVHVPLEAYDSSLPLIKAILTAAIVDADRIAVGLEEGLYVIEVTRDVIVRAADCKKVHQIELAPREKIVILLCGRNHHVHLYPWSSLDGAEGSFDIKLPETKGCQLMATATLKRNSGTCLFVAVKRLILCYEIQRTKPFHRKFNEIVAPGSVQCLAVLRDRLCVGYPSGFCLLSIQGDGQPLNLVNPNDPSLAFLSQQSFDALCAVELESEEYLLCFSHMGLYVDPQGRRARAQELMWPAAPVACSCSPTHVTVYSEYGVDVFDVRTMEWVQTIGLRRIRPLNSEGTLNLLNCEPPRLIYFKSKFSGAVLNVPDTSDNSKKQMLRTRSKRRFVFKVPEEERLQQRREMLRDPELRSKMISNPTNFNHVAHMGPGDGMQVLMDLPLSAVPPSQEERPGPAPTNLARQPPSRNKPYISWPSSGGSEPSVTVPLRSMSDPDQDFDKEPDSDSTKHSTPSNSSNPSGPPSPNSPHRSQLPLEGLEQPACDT
Chain of DYRK1B (human) (Q9Y463 whole entry, looked up): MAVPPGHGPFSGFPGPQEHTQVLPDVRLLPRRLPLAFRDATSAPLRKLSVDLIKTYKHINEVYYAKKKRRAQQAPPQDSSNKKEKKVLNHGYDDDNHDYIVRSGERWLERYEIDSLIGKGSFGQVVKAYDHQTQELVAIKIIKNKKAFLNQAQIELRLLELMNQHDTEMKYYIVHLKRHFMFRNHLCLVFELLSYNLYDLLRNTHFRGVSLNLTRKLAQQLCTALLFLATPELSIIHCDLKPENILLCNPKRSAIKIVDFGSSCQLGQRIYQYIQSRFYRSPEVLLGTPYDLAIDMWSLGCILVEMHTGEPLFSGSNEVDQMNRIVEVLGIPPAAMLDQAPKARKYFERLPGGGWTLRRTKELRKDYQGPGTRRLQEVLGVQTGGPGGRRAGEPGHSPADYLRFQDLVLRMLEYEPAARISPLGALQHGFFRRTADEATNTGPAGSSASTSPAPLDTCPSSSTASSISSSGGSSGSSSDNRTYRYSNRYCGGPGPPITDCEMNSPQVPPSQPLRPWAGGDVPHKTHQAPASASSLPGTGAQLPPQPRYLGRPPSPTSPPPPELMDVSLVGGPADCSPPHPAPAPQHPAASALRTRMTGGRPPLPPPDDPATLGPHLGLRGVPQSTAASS

## COc1cc2ncc(-c3ccccc3)nc2cc1OC
[1]
  residual activity: 83.6%
[2]
  residual activity: 105%
[3]
  residual activity: 110%
[4]
  residual activity: 104%
[5]
  residual activity: 94.4%
[6]
  residual activity: 99.2%
[7]
  residual activity: 93.5%
[8]
  residual activity: 94%
[9]
  residual activity: 105%
[10]
  residual activity: 95.7%
[11]
  residual activity: 98.2%
[12]
  residual activity: 97.3%
[13]
  residual activity: 106%
[14]
  residual activity: 99.5%
[15]
  residual activity: 85%
[16]
  residual activity: 101%
[17]
  residual activity: 90.6%
[18]
  residual activity: 93.9%
[19]
  residual activity: 85.9%
[20]
  residual activity: 94.6%
[21]
  residual activity: 102%
[22]
  residual activity: 98%
[23]
  residual activity: 114%
[24]
  residual activity: 93.4%
[25]
  residual activity: 94.1%
[26]
  residual activity: 95.5%
[27]
  residual activity: 93.7%
[28]
  residual activity: 93.3%
[29]
  residual activity: 89.1%
[30]
  residual activity: 82.1%
[31]
  residual activity: 97.9%
[32]
  residual activity: 85.4%
[33]
  residual activity: 103%
[34]
  residual activity: 85.5%
[35]
  residual activity: 85.6%
[36]
  residual activity: 85.7%
[37]
  residual activity: 96%
[38]
  residual activity: 93.1%
[39]
  residual activity: 91.8%
[40]
  residual activity: 90.3%
[41]
  residual activity: 82.7%

## Cn1sc(=O)n(Cc2ccccc2)c1=O
[1]
  residual activity: 108%
[2]
  residual activity: 89.8%
[3]
  residual activity: 103%
[4]
  residual activity: 101%
[5]
  residual activity: 91.6%
[6]
  residual activity: 101%
[7]
  residual activity: 98.2%
[8]
  residual activity: 96.7%
[9]
  residual activity: 95.7%
[10]
  residual activity: 97.2%
[11]
  residual activity: 98.7%
[42]
  residual activity: 88.5%
[12]
  residual activity: 84.7%
[13]
  residual activity: 93.6%
[14]
  residual activity: 106%
[15]
  residual activity: 96.1%
[16]
  residual activity: 98%
[17]
  residual activity: 107%
[18]
  residual activity: 96%
[19]
  residual activity: 102%
[20]
  residual activity: 103%
[21]
  residual activity: 101%
[22]
  residual activity: 103%
[23]
  residual activity: 102%
[24]
  residual activity: 99.8%
[25]
  residual activity: 94.1%
[26]
  residual activity: 101%
[27]
  residual activity: 100%
[28]
  residual activity: 96.4%
[29]
  residual activity: 107%
[30]
  residual activity: 95.2%
[31]
  residual activity: 94.5%
[32]
  residual activity: 89.4%
[34]
  residual activity: 107%
[35]
  residual activity: 104%
[36]
  residual activity: 90.9%
[37]
  residual activity: 100%
[38]
  residual activity: 94.4%
[39]
  residual activity: 108%
[40]
  residual activity: 104%
[41]
  residual activity: 92.9%

## Nc1nccc(-c2c(-c3ccc(F)cc3)ncn2C2CCNCC2)n1
[1]
  residual activity: 97.2%
[2]
  residual activity: 103%
[3]
  residual activity: 100%
[4]
  residual activity: 90.9%
[5]
  residual activity: 99.6%
[6]
  residual activity: 99.9%
[7]
  residual activity: 100%
[8]
  residual activity: 95.1%
[9]
  residual activity: 96.8%
[11]
  residual activity: 94.3%
[42]
  residual activity: 103%
[12]
  residual activity: 99.9%
[13]
  residual activity: 103%
[14]
  residual activity: 100%
[15]
  residual activity: 89.3%
[16]
  residual activity: 99.5%
[17]
  residual activity: 123%
[18]
  residual activity: 99.8%
[19]
  residual activity: 97.6%
[20]
  residual activity: 95.4%
[21]
  residual activity: 105%
[22]
  residual activity: 100%
[23]
  residual activity: 105%
[24]
  residual activity: 99.1%
[25]
  residual activity: 102%
[26]
  residual activity: 97.8%
[27]
  residual activity: 95.5%
[28]
  residual activity: 101%
[29]
  residual activity: 97.1%
[30]
  residual activity: 98.5%
[31]
  residual activity: 97.5%
[32]
  residual activity: 102%
[33]
  residual activity: 104%
[34]
  residual activity: 94.9%
[35]
  residual activity: 76.9%
[36]
  residual activity: 101%
[37]
  residual activity: 100%
[38]
  residual activity: 101%
[39]
  residual activity: 97.9%
[40]
  residual activity: 100%
[41]
  residual activity: 102%

## CCn1cnc2c(Nc3cccc(Cl)c3)nc(N[C@@H]3CCCC[C@@H]3N)nc21
[1]
  residual activity: 74.3%
[2]
  residual activity: 94.2%
[3]
  residual activity: 94.4%
[4]
  residual activity: 103%
[5]
  residual activity: 104%
[6]
  residual activity: 108%
[7]
  residual activity: 95.4%
[8]
  residual activity: 65.7%
[9]
  residual activity: 16.4%
[10]
  residual activity: 94.1%
[11]
  residual activity: 98.5%
[42]
  residual activity: 82.9%
[12]
  residual activity: 71.4%
[13]
  residual activity: 106%
[14]
  residual activity: 96.5%
[15]
  residual activity: 92.8%
[16]
  residual activity: 96.8%
[17]
  residual activity: 94.8%
[18]
  residual activity: 110%
[19]
  residual activity: 94.9%
[20]
  residual activity: 5.16%
[21]
  residual activity: 107%
[22]
  residual activity: 82.5%
[23]
  residual activity: 101%
[24]
  residual activity: 69.1%
[25]
  residual activity: 92.3%
[26]
  residual activity: 98.4%
[27]
  residual activity: 76.9%
[28]
  residual activity: 97.7%
[29]
  residual activity: 23.4%
[30]
  residual activity: 99.7%
[31]
  residual activity: 103%
[32]
  residual activity: 96.5%
[34]
  residual activity: 105%
[35]
  residual activity: 93.9%
[36]
  residual activity: 99.9%
[37]
  residual activity: 90.4%
[38]
  residual activity: 93%
[39]
  residual activity: 87.8%
[40]
  residual activity: 105%
[41]
  residual activity: 97.8%
